We go through one compound from patent US7034047B2, “Triazole derivative” (Astellas Pharma, Inc., priority 2000, dated 2006).

Test [1] deals with T1, GLYT1 subtype of the glycine transporter (Rattus norvegicus, UniProt P28572).
T1 construct: C6 glioma cell expressing GLYT1 subtype of the glycine transporter; host or cells: C6 glioma cells
T1 sequence (P28572 1-638): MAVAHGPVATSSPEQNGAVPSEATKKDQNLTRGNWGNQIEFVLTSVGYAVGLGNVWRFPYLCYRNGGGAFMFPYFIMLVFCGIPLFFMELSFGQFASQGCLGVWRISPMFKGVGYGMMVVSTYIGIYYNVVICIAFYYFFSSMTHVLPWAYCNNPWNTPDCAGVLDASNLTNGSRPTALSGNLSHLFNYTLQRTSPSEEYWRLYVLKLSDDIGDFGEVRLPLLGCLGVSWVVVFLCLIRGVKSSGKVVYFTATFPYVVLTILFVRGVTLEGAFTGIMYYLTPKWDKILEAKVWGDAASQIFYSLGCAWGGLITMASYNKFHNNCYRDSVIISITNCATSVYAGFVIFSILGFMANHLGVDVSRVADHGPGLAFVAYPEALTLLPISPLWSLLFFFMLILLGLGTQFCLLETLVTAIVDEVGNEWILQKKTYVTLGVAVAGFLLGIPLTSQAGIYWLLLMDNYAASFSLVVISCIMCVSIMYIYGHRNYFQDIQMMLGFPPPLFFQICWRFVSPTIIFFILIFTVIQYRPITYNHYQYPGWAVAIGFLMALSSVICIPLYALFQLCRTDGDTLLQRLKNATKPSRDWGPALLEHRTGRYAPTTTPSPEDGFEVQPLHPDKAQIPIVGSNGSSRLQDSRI
The experiment in a line: [3H]-glycine uptake assay in C6 glioma cells (action of inhibiting glycine transporter). It counts as cell-based. To be noted: 20 min at 37° C., read-out: GLYT-inhibiting activity IC50. As to the method: 1. Action of Inhibiting Glycine Transporter
C6 glioma cell (American Type Culture Collection) was cultured in DMEM containing 10% fetal bovine serum, 100 units/ml penicillin G and 0.1 mg/ml streptomycin sulfate in a CO2 incubator under conditions of 5% CO2 and 37° C.
[^3H]-glycine uptake was performed by the method of Gomeza, et al.
C6 glioma cells were plated out at a concentration of 2×10^4 cells/well in a 96-well plate (Culturplate, Packard Co.), for culturing for 2 days. Subsequently, [^3H]-glycine uptake was tested. The cell was rinsed once in a buffer (150 mM NaCl, 5 mM KCl, 1 mM CaCl2, 1 mM MgCl2, 10 mM glucose, 5 mM L-alanine, 10 mM Hepes-Na, pH 7.4), followed by subsequent addition of the buffer, for incubation at 37° C. for 10 minutes.
After incubation, the buffer was exchanged to a reaction buffer including [^3H]-glycine (about 0.2 μM, 41 Ci/mmol, New England Nuclear)and a compound to be assessed, for incubation at 37° C. for another 20 minutes. After 20-min reaction, the reaction mixture was rinsed in ice-cold PBS (phosphate buffered saline). The cell was dissolved in 0.1N NaOH solution, to assay the radioactivity incorporated with a liquid scintillation counter. The specific incorporation was defined as a portion substituted with 3 mM sarcosine in the total incorporation. The test compound was assessed by determining the incorporation-inhibiting ratio of the specific incorporation.

Test [2] deals with ECS-induced learning disability. Description: Electric convulsion shock (ECS)-induced learning disability (mouse passive avoidance test). To be noted: dosed intraperitoneally; step-through latency, p<0.05. It counts as in vivo, male ddY mouse. From the text: 4. Electric Convulsion Shock (ECS)—Induced Learning Disability (Mouse Passive Avoidance Test)
With reference to the previous report (Eur J Pharmacology, 321; 273–278, 1997), assessment was done as follows. • Animal: male ddY mouse (Nippon SLC; age 5 weeks at training) was used. 16 animals were used per one group. <Experimental Procedures> Preparation of Chemical Agents A test compound for oral administration was suspended in aqueous 0.5% methyl cellulose solution, and for intraperitoneal administration was suspended in solution dissolved 0.5% of methyl cellulose solution in saline The dose administered was 10 ml per 1 kg·body weight. As a placebo of the test compound, 10 ml of aqueous 0.5% methyl cellulose solution for oral administration and 10 ml of 0.5% methyl cellulose solution in saline for intraperitoneal administration (herein referred to as vehicle) was administrated. […] Test (24 Hours after the Training) • (1) The animals were left in the experimental room for one hour or longer. • (2) After the mice were placed in the bright room and left for 30 seconds, the guillotine door was opened. • (3) The time (step-through latency) required for the mice to cross the sensor of the dark room from the opening of the guillotine door was counted. […] A significance was determined at p<0.05.

As a reminder, the IC50 is the concentration that inhibits the measured activity by half.

On to `CC(C)c1nnc(-c2ccc(-c3ccccc3)cc2)n1-c1ccccc1F` [Production Example 1, 3-Biphenyl-4-yl-4-(2-fluorophenyl)-5-isopropyl-4H-1,2,4-triazole], for which the IC50 in test [1] worked out at 360 nM. In test [2], this compound had a minimum effective dose of 10 mg/kg.
